Measured values from US20250263436A1, “BROAD-SPECTRUM ANTIVIRAL DRUG FOR ENTEROVIRUS, AND APPLICATION” (WUHAN INSTITUTE OF VIROLOGY, CHINESE ACADEMY OF SCIENCES, priority 2020, published 2025).
Where “and” joins values, the source holds several entries; their conditions need not be identical. Equal values may be shown once. Entries after “also recorded” stand apart in the source; their conditions may differ.

Experiments:
[1] = tested on: cell-penetrating peptide YGRKKRRQRRR (TAT)
[2] = Toxicity assay in RD cells (CCK-8); type: cell-based; settings: human
Method: (§1) (1) Different cells were plated in a 96-well plate at 100 μL per well.
(§2) (2) When the cells grew to a confluence of 70%-80%, the DMEM medium containing 10% serum was replaced with a DMEM medium containing 2% serum, and a certain concentration gradient of polypeptide RQ was added, so that the final concentrations of the polypeptide in the wells were 0.073242 μM, 0.146484 μM, 0.292969 μM, 0.585938 μM, 1.171875 μM, 2.34375 μM, 4.6875 μM, 9.375 μM, 18.75 μM, 37.5 μM, 75 μM, 150 μM, and 300 μM, respectively.
(§3) (3) The samples were collected 24 h after the addition of the polypeptide, and then 10 μL of live cell detection reagent CCK-8 was added to each well and mixed well.
(§4) (4) The plate was placed at 37° C. for 2 h.
(§5) (5) The absorbance value at OD450 was detected by a microplate reader.
(§6) (1) RD cells were plated in a 96-well plate at 100 μL per well.
(§7) (2) When the cells grew to a confluence of 70%-80%, the DMEM medium containing 10% serum was replaced with a DMEM medium containing 2% serum, and B-RQ was added so that the final concentrations in the wells were 0.46 μM, 2.34 μM, 4.68 μM, 9.37 μM, 18.75 μM, 37.5 μM, 75 μM, and 150 μM.

RD cells = assay: Toxicity assay in RD cells (CCK-8); type: cell-based; settings: RD cells, 24 h
Method: as §1, §2, §3, §4, §5, §6, §7

CVB3 = assay: Inhibition of CVB3 in RD cells (viral RNA, qRT-PCR); type: cell-based; settings: inhibiting CVB3 in RD cells
Method: (§8) (1) RD cells were plated in a 24-well plate.
(2) When the cells grew to a confluence of 70%-80%, the DMEM medium containing 10% serum was replaced with a DMEM medium containing 2% serum (the DMEM medium containing 2% serum was added in each well at an amount of 0.5 mL), and 5 μL of CVB3 virus of 1×10^6 PFU/mL was added to each well.
(§9) (3) After 1 h, the polypeptides with final concentrations of 0.3125 μM, 0.625 μM, 1.25 μM, 2.5 μM, and 5 μM were added respectively. The group without polypeptide added was used as a control.
(4) The samples were collected 24 h after the infection of CVB3 virus, and RNA was extracted with the total RNA extraction kit.
(§10) (5) The supernatant was discarded, then 350 μL of TRK lysate was added to each well, and the plate was put on a shaker for 5 min.
(§11) (6) 350 μL of 70% ethanol (DEPC) was added to each well, and then the plate was put on a shaker for 5 min.
(§12) (7) The solution in each well was transferred to a RNA extraction column for 1 min of centrifugation at 12000 g.
(§13) (8) The solution obtained in the recovery tube was reloaded on the column again for 1 min of centrifugation at 12000 g.
(§14) (9) RNA washing buffer 1 was added in the column for 30 s of centrifugation at 12000 g. […]
(§15) (14) 2 μL of RNA sample was subjected to a fluorescence quantitative experiment using the one step qRT-PCR kit. […]

Echo 11 = assay: Inhibition of Echo 11 in RD cells (viral RNA, qRT-PCR); type: cell-based; settings: inhibiting Echo 11 in RD cells
Method: as §8
(2) When the cells grew to a confluence of 70%-80%, the DMEM medium containing 10% serum was replaced with a DMEM medium containing 2% serum (the DMEM medium containing 2% serum was added in each well at an amount of 0.5 mL), and 5 μL of Echo 11 virus of 1×10^6 PFU/mL was added to each well.
as §9
(4) The samples were collected 24 h after the infection of Echo 11 virus, and RNA was extracted with the total RNA extraction kit.
as §10, §11, §12, §13, §14, §15

MBP-EV71 2C protein
helicase activity (unwinding of HEX-labeled dsRNA substrate, gel electrophoresis) [1]: the control TAT did not affect the helicase activity of 2C (lane 4)
helicase activity (unwinding of HEX-labeled dsRNA substrate, gel electrophoresis) (polypeptide RQ): the addition of RQ inhibited the helicase activity of 2C (lane 5); also recorded: RQ inhibited the helicase activity of EV71 2C in a dose-dependent manner

CC(C)C[C@H](NC(=O)[C@H](C)NC(=O)[C@H](CCC(=O)O)NC(=O)[C@H](CC(C)C)NC(=O)[C@@H](NC(=O)[C@H](C)NC(=O)CNC(=O)[C@@H](NC(=O)[C@H](CO)NC(=O)[C@H](Cc1c[nH]cn1)NC(=O)[C@H](CCCNC(=N)N)NC(=O)[C@H](Cc1c[nH]cn1)NC(=O)[C@H](CC(N)=O)NC(=O)[C@H](Cc1ccc(O)cc1)NC(=O)[C@H](CCC(=O)O)NC(=O)[C@H](CCCNC(=N)N)NC(=O)CNC(=O)[C@H](CO)NC(=O)CNC(=O)[C@H](CCCNC(=N)N)NC(=O)[C@H](CCCNC(=N)N)NC(=O)[C@H](CCCNC(=N)N)NC(=O)[C@H](CCC(N)=O)NC(=O)[C@H](CCCNC(=N)N)NC(=O)[C@H](CCCNC(=N)N)NC(=O)[C@H](CCCCN)NC(=O)[C@H](CCCCN)NC(=O)[C@H](CCCNC(=N)N)NC(=O)CNC(=O)[C@@H](N)Cc1ccc(O)cc1)C(C)C)[C@@H](C)O)C(=O)N[C@@H](Cc1ccccc1)C(=O)N[C@@H](CCC(N)=O)C(=O)O [B-RQ]
viability at 24 h, 0.46875 µM ([2]; RD cells, B-RQ 0.46875 μM, 24 h, read-out: Cell viability (%)): 99%
viability at 24 h, 2.34375 µM ([2]; RD cells, B-RQ 2.34375 μM, 24 h, read-out: Cell viability (%)): 99.1%
viability at 24 h, 4.6875 µM ([2]; RD cells, B-RQ 4.6875 μM, 24 h, read-out: Cell viability (%)): 98.7%
viability at 24 h, 9.375 µM ([2]; RD cells, B-RQ 9.375 μM, 24 h, read-out: Cell viability (%)): 99.3%
viability at 24 h, 18.75 µM ([2]; RD cells, B-RQ 18.75 μM, 24 h, read-out: Cell viability (%)): 97.8%
viability at 24 h, 37.5 µM ([2]; RD cells, B-RQ 37.5 μM, 24 h, read-out: Cell viability (%)): 99.4%
viability at 24 h, 75 µM ([2]; RD cells, B-RQ 75 μM, 24 h, read-out: Cell viability (%)): 96%
viability at 24 h, 150 µM ([2]; RD cells, B-RQ 150 μM, 24 h, read-out: Cell viability (%)): 95.5%
CC50 at 24 h ([2]; Table 1 (RD cells)): > 75 µM
Cell viability (%) (RD cells; B-RQ 0.46875 μM): 99.47% and 98.27%
Cell viability (%) (RD cells; B-RQ 2.34375 μM): 97.93% and 97.19%
Cell viability (%) (RD cells; B-RQ 4.6875 μM): 100.7775% and 96.97%
Cell viability (%) (RD cells; B-RQ 9.375 μM): 96.62% and 96.17%
Cell viability (%) (RD cells; B-RQ 18.75 μM): 97.36%
Cell viability (%) (RD cells; B-RQ 37.5 μM): 99.64% and 99.24%
Cell viability (%) (RD cells; B-RQ 75 μM): 95.66%
Cell viability (%) (RD cells; B-RQ 150 μM): 95.94% and 95.32%
IC50 (CVB3): 2.29 µM
IC50 (Echo 11): 0.38 µM
